In patent US9675699B2, “Cooling enhancing compositions” (International Flavors & Fragrances Inc., priority 2011, dated 2017):

Assays:
cooling = experiment: Inherent cooling of materials tasted alone in water; format: in vivo, human
[1] = tested on: cooling profile of menthol; experiment: Example II: cooling profile versus 5 ppm menthol control, group of five trained panelists; format: in vivo, human; details: for Average Increase: versus 5 ppm menthol control
Protocol: Responsible actives were determined by comparing the cooling profile of menthol alone (the control) against the solutions with either menthol or cooling enhancing compositions or menthol with the active(s). The profile attributes consist of onset, location, intensity and duration of cooling. Control: 5mg menthol/1 Liter of water (=5 ppm) The use level of 5 ppm is a standard use level within our research facility when looking for cooling enhancement. The levels of the actives were determined after tasting them at varying concentrations within the range of 1 ppm to 200 ppm. The levels presented were deemed to be optimal by offering the greatest functionality. The cooling enhancing compositions listed below were dosed on top of the menthol control. The results below were obtained by a group of five trained panelists.)

cooling strength = details: with respect to WS-3 = 10.0; cited from earlier work
[2] = 5 ppm Menthol + 50 ppm test substance in water
[3] = 5 ppm Menthol + 50 ppm test substance

## O=C1C[C@@H](c2ccc(O)c(O)c2)Oc2cc(O)cc(O)c21 [Eriodictyol]
cooling; 35 ppm in water
  inherent cooling (taste observation): slight irritation (piperin-like burn) without cooling
[1]; [2]
  Taste Descriptors: Cooling localized on middle of tongue stronger than control, more intense in back of throat on breath-in, does not trigger a faster onset, cooling builds more after expectorating and on breath-in, sharpened the intensity of cooling in the center and sides of tongue and roof of mouth
[1]; [3]
  Average Increase: 56%

## COc1ccc([C@@H]2CC(=O)c3c(O)cc(O)cc3O2)cc1O [Hesperetin]
[1]; [2]
  Taste Descriptors: Sweet, no impact on cooling, slightly bitter, drying, cooling is delocalized and about the same strength as control
[1]; [3]
  Average Increase: 0%

## COc1cc([C@@H]2CC(=O)c3c(O)cc(O)cc3O2)ccc1O [Homoeriodictyol]
cooling; 5 ppm in water
  inherent cooling (taste observation): taste neutral, slightly drying, no cooling
cooling; 25 ppm in water
  inherent cooling (taste observation): drying, not cooling
[1]; 5 ppm Menthol + 5 ppm test substance in water
  Taste Descriptors: faster onset of cooling than menthol alone, cooling localized on front of tongue, cold as in temperature, slight teeth cooling, fully delocalized cooling after 10 seconds reaching back of throat and roof of mouth, mild cooling on breath-in, diminished menthol burn
[1]; 5 ppm Menthol + 5 ppm test substance
  Average Increase: 66%

## O=c1cc(-c2ccc(O)c(O)c2)oc2cc(O)cc(O)c12 [Luteolin]
cooling; 50 ppm in water
  inherent cooling (taste observation): slightly stale flavor, no cooling
[1]; [2]
  Taste Descriptors: Equivalent cooling as compared to control, localized on front tip of tongue, gums and roof of mouth, did not expedite onset but smoothed upfront mouthfeel, slight irritation to tongue and back of mouth/ throat cavity
[1]; [3]
  Average Increase: 32%

## CC1CCC(C(C)C)C(O)C1 (stereo not drawn) [Menthol]
[1]; 5 ppm Menthol alone in water (control)
  Taste Descriptors: thin and moderate cooling, slight burn, some bitterness, cooling on front, tip of tongue and gums, mild cooling on breath-in, slightly harsh and sharp

## CC1CCC(C(C)C)C(OC(=O)C(C)O)C1 (stereo not drawn) [Menthyl Lactate]
Cooling strength
  relative cooling strength: about 2.9

## CNC(=O)C1C(C)CCCC1(C)C (stereo not drawn) [N,2,2,6-Tetramethylcyclohexane-l-carboxamide]
Cooling strength
  relative cooling strength: about 1.0

## CCNC(=O)C1CC(C)CCC1C(C)C (stereo not drawn) [WS-3]
Cooling strength
  relative cooling strength: 10.0

## CCOC(=O)CNC(=O)[C@@H]1C[C@H](C)CC[C@H]1C(C)C [WS-5]
Cooling strength
  relative cooling strength: about 16.7

## CC(C)[C@@H]1CC[C@@H](C)C[C@H]1C(=O)NC(C)(C)C [WS-14]
Cooling strength
  relative cooling strength: about 5.0

## CNC(=O)C(C)(C(C)C)C(C)C [WS-23]
Cooling strength
  relative cooling strength: about 5.0

## CC1CCC(C(C)C)C(C(=O)OCC(O)CO)C1 (stereo not drawn) [WS-30]
Cooling strength
  relative cooling strength: about 1.5

## CC(C)[C@@H]1CC[C@@H](C)C[C@H]1OC(=O)CCCC(=O)O [monomenthyl glutarate]
Cooling strength
  relative cooling strength: about 3.5
